In patent US20080214563A1, “Benzimidazole Thiophene Compounds As Plk Modulators” (priority 2005, published 2008):

Columns and labels:
[1] = test system: Normal human foreskin fibroblasts (HFF); experiment: Methylene Blue Cell Growth Inhibition Assay, HFF; type: cell-based; details: Fibroblast, 72 h, read-out: MEB HFF IC50
Experimental: Normal human foreskin fibroblasts (HFF), human colon (HCT116, RKO), lung (H460, A549) and breast (MCF7) tumor cell lines were cultured in high glucose DMEM (Life Technologies) containing 10% fetal bovine serum (FBS) at 37° C. in a humidified 5% CO2, 95% air incubator. Cells were harvested using trypsin/EDTA, counted using a haemocytometer, and plated in 100 μL of culture media per well, at the following densities, in a 96-well tissue culture plate (Falcon 3075): HFF 5,000 cells/well, HCT116 3,000 cells/well, RKO 2,500 cells/well, H460 2,500 cells/well, A549 5,000 cells/well, MCF7 4,000 cells/well. The next day, compounds were diluted in low glucose DMEM containing 100 μg/mL gentamicin, at twice the final required concentration, from 10 mM stock solutions in DMSO. 100 μL/well of these dilutions were added to the 100 μL of media currently in the assay plates. Medium containing 0.6% DMSO was added to control wells. The final concentration of DMSO in all wells was 0.3%. Cells were incubated at 37° C., 5% CO2 for 72 h. Medium was removed by aspiration. Cell biomass was estimated by staining cells with 80 μL per well methylene blue (Sigma M9140, 0.5% in 50:50 ethanol:water), and incubation at room temperature for 30-60 min. Stain was removed by aspiration and the plates rinsed by immersion in water, then air-dried. To release stain from the cells, 100 μL of solubilization solution was added (1% N-lauroyl sarcosine, Sodium salt, Sigma L5125, in PBS), and plates were shaken gently for about 30 min. Optical density at 620 nm was measured on a microplate reader. Percent inhibition of cell growth was calculated relative to vehicle treated control wells. Concentration of compound that inhibits 50% of cell growth (IC50) was interpolated using nonlinear regression (Levenberg-Marquardt) and the equation, y=Vmax*(1−(x/(K+x)))+Y2, where “K” was equal to the IC50.

PLK1 kinase domain = target: T1, PLK1 kinase domain (Homo sapiens, UniProt P53350); experiment: Assay for Inhibition of PLK1 (33P SPA kinase assay); type: biochemical; details: 2 nM PLK1 kinase domain, 1 μM ATP; read-out: PLK1 pIC50 (converted)
T1 construct: made in house; host or cells: baculovirus infected T. ni cells
T1 sequence (P53350 21-346): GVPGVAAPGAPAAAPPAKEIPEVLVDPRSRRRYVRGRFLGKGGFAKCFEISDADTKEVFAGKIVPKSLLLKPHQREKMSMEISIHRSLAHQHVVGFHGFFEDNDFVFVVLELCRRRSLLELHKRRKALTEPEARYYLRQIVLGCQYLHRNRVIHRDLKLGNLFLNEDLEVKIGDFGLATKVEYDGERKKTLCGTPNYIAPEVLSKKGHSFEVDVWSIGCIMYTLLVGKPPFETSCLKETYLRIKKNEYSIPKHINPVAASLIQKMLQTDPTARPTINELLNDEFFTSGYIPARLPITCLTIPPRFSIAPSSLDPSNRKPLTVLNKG
Experimental: All procedures were performed at 4° C. Cells were lysed in 50 mM HEPES, 200 mM NaCl, 50 mM imidazole, 5% glycerol; pH 7.5. The homogenate was centrifuged at 14K rpm in a SLA-1500 rotor for 1 h and the supernatant filtered through a 1.2 micron filter. The supernatant was loaded onto a Nickel chelating Sepharose (Amersham Pharmacia) column and washed with lysis buffer. Protein was eluted using 20%, 30% and 100% buffer B steps where buffer B is 50 mM HEPES, 200 mM NaCl, 300 mM imidazole, 5% glycerol; pH 7.5. Fractions containing PLK were determined by SDS-PAGE. Fractions containing PLK were diluted five-fold with 50 mM HEPES, 1 mM DTT, 5% glycerol; pH 7.5, then loaded on an SP Sepharose (Amersham Pharmacia) column. After washing the column with 50 mM HEPES, 1 mM DTT, 5% glycerol; pH 7.5, PLK was step eluted with 50 mM HEPES, 1 mM DTT, 500 mM NaCl; 5% glycerol; pH 7.5. PLK was concentrated using a 10 kDa molecular weight cutoff membrane and then loaded onto a Superdex 200 gel filtration (Amersham Pharmacia) column equilibrated in 25 mM HEPES, 1 mM DTT, 500 mM NaCl, 5% glycerol; pH 7.5. Fractions containing PLK were determined by SDS-PAGE. PLK was pooled, aliquoted and stored at −80° C. Samples were quality controlled using mass spectrometry, N-terminal sequencing and amino acid analysis.
B. Enzyme activity +/− inhibitors was determined as follows:
All measurements were obtained under conditions where signal production increased linearly with time and enzyme. Test compounds were added to white 384-well assay plates (0.1 μL for 10 μL and some 20 μl assays, 1 μL for some 20 μL assays) at variable known concentrations in 100% DMSO. DMSO (1-5% final, as appropriate) and EDTA (65 mM in reaction) were used as controls.
Reaction Mix (10 or 20 μL) was quickly added to each well immediately following addition of enzyme via automated liquid handlers and incubated 1-1.5 h at 22° C. The 20 μL enzymatic reactions were stopped with 50 μL of stop mix (50 mM EDTA, 4.0 mg/mL Streptavidin SPA beads in Standard Dulbecco's PBS (without Mg^2+ and Ca^2+), 50 μM ATP) per well. The 10 μL reactions were stopped with 10 μL of stop mix (50 mM EDTA, 3.0 mg/mL Streptavidin-coupled SPA Imaging Beads (“LeadSeeker”) in Standard Dulbecco's PBS (without Mg^2+ and Ca^2+), 50 μM ATP) per well. Plates were sealed with clear plastic seals, spun at 500×g for 1 min or settled overnight, and counted in Packard TopCount for 30 seconds/well (regular SPA) or imaged using a Viewlux imager (LeadSeeker SPA). Signal above background (EDTA controls) was converted to percent inhibition relative to that obtained in control (DMSO-only) wells.

MX-1 = experiment: Methylene Blue Cell Growth Inhibition Assay, MX-1; type: cell-based; details: Homo sapiens, MX1, 72 h, read-out: MEB MX-1 IC50

SMILES | IC50 [1] | IC50 (PLK1 kinase domain) | IC50 (MX-1)
C[C@@H](Oc1cc(-n2cnc3cc(-c4ccc(N5CCNCC5)nc4)ccc32)sc1C(N)=O)c1ccccc1C(F)(F)F [Example 1, 5-{5-[6-(1-piperazinyl)-3-pyridinyl]-1H-benzimidazol-1-yl}-3-({(1R)-1-[2-(trifluoromethyl)phenyl]ethyl}oxy)-2-thiophenecarboxamide] | > 1 µM | < 0.01 µM | 0.1 to 1 µM
C[C@@H](Oc1cc(-n2cnc3cc(-c4ccc(N5CCNCC5)nc4)ccc32)sc1C(N)=O)c1ccccc1Cl [Example 7, 3-{[(1R)-1-(2-Chlorophenyl)ethyl]oxy}-5-{5-[6-(1-piperazinyl)-3-pyridinyl]-1H-benzimidazol-1-yl}-2-thiophenecarboxamide] |  | < 0.01 µM | 
C[C@@H](Oc1cc(-n2cnc3cc(-c4cnn(C)c4)ccc32)sc1C(N)=O)c1ccccc1Cl [Example 9, 3-{[(1R)-1-(2-Chlorophenyl)ethyl]oxy}-5-[5-(1-methyl-1H-pyrazol-4-yl)-1H-benzimidazol-1-yl]-2-thiophenecarboxamide] | 0.1 to 1 µM |  | < 0.1 µM
